Assay results reported in PubChem BioAssay AID1963844 (Molecular Pharmacology Branch, DTP, NCI, 2024).

Tested on: 422866-222-R5-J1-PDC complex spheroid viability
Test: Anticancer human tumor 422866-222-R5-J1-PDC patient-derived pancreatic adenocarcinoma cell line growth inhibition [POLQ]
Settings: for IC50: curve of first compound; for viability, T/C: stronger effect = lower value
Method in brief: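 Patient-derived tumour cells were co-cultured with HUVEC and mesenchymal stem cells as multicellular spheroids at 37 °C. They were treated with POLQ inhibitors (novobiocin, ART-558, RP6685) alone or combined with other agents. Top concentrations were at or near clinical Cmax (otherwise 10 microM; SN-38 at 1 microM), decreasing in half-log steps.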

[1] = second compound 0.0316 µM, first compound 0.0316 µM
[2] = second compound 0.0316 µM, first compound 0.1 µM
[3] = second compound 0.0316 µM, first compound 0.316 µM
[4] = second compound 0.0316 µM, first compound 1 µM
[5] = second compound 0.0316 µM, first compound 3.16 µM
[6] = second compound 0.0316 µM, first compound 10 µM
[7] = second compound 0.1 µM, first compound 0.0316 µM
[8] = second compound 0.1 µM, first compound 0.1 µM
[9] = second compound 0.1 µM, first compound 0.316 µM
[10] = second compound 0.1 µM, first compound 1 µM
[11] = second compound 0.1 µM, first compound 3.16 µM
[12] = second compound 0.1 µM, first compound 10 µM
[13] = second compound 0.316 µM, first compound 0.0316 µM
[14] = second compound 0.316 µM, first compound 0.1 µM
[15] = second compound 0.316 µM, first compound 0.316 µM
[16] = second compound 0.316 µM, first compound 1 µM
[17] = second compound 0.316 µM, first compound 3.16 µM
[18] = second compound 0.316 µM, first compound 10 µM
[19] = second compound 1 µM, first compound 0.0316 µM
[20] = second compound 1 µM, first compound 0.1 µM
[21] = second compound 1 µM, first compound 0.316 µM
[22] = second compound 1 µM, first compound 1 µM
[23] = second compound 1 µM, first compound 3.16 µM
[24] = second compound 1 µM, first compound 10 µM
[25] = second compound 3.16 µM, first compound 0.0316 µM
[26] = second compound 3.16 µM, first compound 0.1 µM
[27] = second compound 3.16 µM, first compound 0.316 µM
[28] = second compound 3.16 µM, first compound 1 µM
[29] = second compound 3.16 µM, first compound 3.16 µM
[30] = second compound 3.16 µM, first compound 10 µM
[31] = second compound 10 µM, first compound 0.0316 µM
[32] = second compound 10 µM, first compound 0.1 µM
[33] = second compound 10 µM, first compound 0.316 µM
[34] = second compound 10 µM, first compound 1 µM
[35] = second compound 10 µM, first compound 3.16 µM
[36] = second compound 10 µM, first compound 10 µM
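Note: spheroids exposed to compounds for one week before readout.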
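Throughout, for viability, T/C: percent of DMSO vehicle wells luminescence so 100% = untreated viability.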

SMILES: CC1COCCN1c1cc(-c2ccnn2C)c2ccnc(-c3ccn[nH]3)c2n1 (centres undefined) + Cc1cccc(N(C)C(=O)C2C(O)CCN2c2nc(C)cc(C(F)(F)F)c2C#N)c1
- IC50 (second compound 0.0316 µM): 31.6 nM
- IC50 (second compound 0.1 µM): > 10000 nM
- IC50 (second compound 0.316 µM): > 10000 nM
- IC50 (second compound 1 µM): > 10000 nM
- IC50 (second compound 3.16 µM): 31.6 nM
- IC50 (second compound 10 µM): 31.6 nM
- viability, T/C [1]: 82.3%
- viability, T/C [2]: 55.7%
- viability, T/C [3]: 49.3%
- viability, T/C [4]: 37.8%
- viability, T/C [5]: 72.3%
- viability, T/C [6]: 83.1%
- viability, T/C [7]: 87%
- viability, T/C [8]: 55.3%
- viability, T/C [9]: 49.1%
- viability, T/C [10]: 44.5%
- viability, T/C [11]: 65.4%
- viability, T/C [12]: 73%
- viability, T/C [13]: 91.8%
- viability, T/C [14]: 59.6%
- viability, T/C [15]: 43.9%
- viability, T/C [16]: 38.6%
- viability, T/C [17]: 62.4%
- viability, T/C [18]: 79.8%
- viability, T/C [19]: 77.5%
- viability, T/C [20]: 73.6%
- viability, T/C [21]: 34%
- viability, T/C [22]: 42.5%
- viability, T/C [23]: 73.7%
- viability, T/C [24]: 73.7%
- viability, T/C [25]: 75.7%
- viability, T/C [26]: 55.8%
- viability, T/C [27]: 49.5%
- viability, T/C [28]: 43.7%
- viability, T/C [29]: 74.3%
- viability, T/C [30]: 85%
- viability, T/C [31]: 74.3%
- viability, T/C [32]: 58.2%
- viability, T/C [33]: 46.7%
- viability, T/C [34]: 36.5%
- viability, T/C [35]: 70.3%
- viability, T/C [36]: 94.8%

SMILES: COc1ccc([C@@H](O)c2cc(-c3ncnc4cc(N5CCOCC5)ccc34)c(F)cc2Cl)nn1 + COC1C(OC(N)=O)C(O)C(Oc2ccc3c(O)c(NC(=O)c4ccc(O)c(CC=C(C)C)c4)c(=O)oc3c2C)OC1(C)C
- IC50 (second compound 0.0316 µM): 2650 nM
- IC50 (second compound 0.1 µM): 1980 nM
- IC50 (second compound 0.316 µM): 2190 nM
- IC50 (second compound 1 µM): 2910 nM
- IC50 (second compound 3.16 µM): 2360 nM
- IC50 (second compound 10 µM): 1940 nM
- viability, T/C [1]: 96.4%
- viability, T/C [2]: 96%
- viability, T/C [3]: 76.5%
- viability, T/C [4]: 67.2%
- viability, T/C [5]: 44.6%
- viability, T/C [6]: 40.5%
- viability, T/C [7]: 101%
- viability, T/C [8]: 100%
- viability, T/C [9]: 93.3%
- viability, T/C [10]: 60%
- viability, T/C [11]: 45.5%
- viability, T/C [12]: 37.4%
- viability, T/C [13]: 88.5%
- viability, T/C [14]: 94.9%
- viability, T/C [15]: 82.8%
- viability, T/C [16]: 61.7%
- viability, T/C [17]: 41.2%
- viability, T/C [18]: 46.5%
- viability, T/C [19]: 109%
- viability, T/C [20]: 102%
- viability, T/C [21]: 76%
- viability, T/C [22]: 67.5%
- viability, T/C [23]: 47.1%
- viability, T/C [24]: 40%
- viability, T/C [25]: 98.8%
- viability, T/C [26]: 99.5%
- viability, T/C [27]: 77.9%
- viability, T/C [28]: 62%
- viability, T/C [29]: 48.3%
- viability, T/C [30]: 30.4%
- viability, T/C [31]: 97.7%
- viability, T/C [32]: 99.5%
- viability, T/C [33]: 86.7%
- viability, T/C [34]: 58.7%
- viability, T/C [35]: 45.4%
- viability, T/C [36]: 37%
